Measurements taken from publication PMC9515468, “Tetracycline-grafted mPEG-PLGA micelles for bone-targeting and osteoporotic improvement” (Frontiers in Pharmacology, 2022).

Assays:
[1] = AS release in vitro, dialysis bag method; assay type: physicochemical; conditions: in 48 h, PBS pH 7.4 with 0.5% Tween 80, 37 °C
Protocol: The experiment was conducted with an oscillating machine (ZRS-8G model, Tianjin Univ. Radio Factory, China) at a speed of 100 rpm and 37 °C. Withdrawal of dissolution medium for analysis was accordingly performed, while the same volume of fresh medium was added at preset time periods. Measurement of AS concentration for the calculation of the cumulative release ratio with HPLC was carried out. The release curve was drawn with the abscissa as time and the cumulative release ratio as the ordinate ([Weng et al., 2019]).

ovariectomized rats = assay: Osteoporotic study in ovariectomized rats (femur micro-CT, BMD); assay type: in vivo, SD rats; conditions: 0.5 mg/kg/2 days intravenous; for BMD (bone mineral density) / BV/TV / SMI (structure model index) / Tb.N / Tb.Sp / Tb.Th: femur of ovariectomized rats, n = 3; for increase of femur BMD compared to the OVX group: ovariectomized rats, treatment for 8 weeks
Protocol: Female SD rats were adopted for the osteoporotic study. […] All SD rats were anesthetized and bilaterally ovariectomized except those in the SHAM group, which underwent a sham operation. […] All SD rats were sacrificed, and their left femurs were collected. Detection of BMD was performed with a dual energy X-ray absorptiometric machine ([…] Microtomograph, Bruker, Belgium) ([Zhang et al., 2020]).

[2] = Hydroxyapatite-targeting ability (binding to bone mineral); conditions: 80 mg hydroxyapatite, 37°C, within 4 h
Protocol: The precipitates were dissolved with 10 ml of methanol prior to 5 min of sonication and 10 min of centrifugation at 12,000 rpm. Filtration of the supernatant was accomplished with a filtering membrane (0.22 μm). The concentration of AS in the supernatant was detected by HPLC. The adsorption ability of bone targets was calculated by the following equation ([Yuan et al., 2020]): A%=Ia/I0×100% (5) where A% represents the adsorption ability of bone targets. The Ia denotes the amount of AS absorbed by hydroxyapatite. The I0 denotes the weight of AS in initial bone targets.

[3] = Pharmacokinetic parameters in the plasma; assay type: in vivo; conditions: SD rats, 10 mg/kg, tail vein, n = 6
Protocol: In-house in vitro analysis of AS was performed with a Shimadzu high performance liquid chromatography (HPLC) machine ([…], Shimadzu-Japan) equipped with an ultraviolet detector and a Purospher® RP18 column (5 μm, 4.6 × 250 mm, Merck KGaA-Germany). […] For in vivo detection, the internal standard (IS) was a baicalein (20 μg/ml) solution, wherein ethyl acetate was employed to extract AS and IS from plasma ([Zhen et al., 2020]). […] Sampling of blood from the retro-orbital veins of rats at preset time intervals was performed after they had received the aforementioned dosage forms. To obtain serum, we stored the sampled blood for 30 min at 37°C prior to centrifugation at 3,700 rpm for 10 min. The following procedure has been depicted in Section 2.7. Based on observed values, we computed Cmax as the maximum AS concentration in plasma and Tmax as the time to attain Cmax. […] Estimation of oral relative biological availability (RBA) was carried out as follows ([Zhu et al., 2021]): […]

Structure (SMILES)	cumulative release rate [1] [%]	effect on osteoporosis in ovariectomized rats vs OVX group (ovariectomized rats; p < 0.05)	BMD (bone mineral density) (ovariectomized rats)	BV/TV (ovariectomized rats) [%]	SMI (structure model index) (ovariectomized rats)	Tb.N (ovariectomized rats)	Tb.Sp (ovariectomized rats)	Tb.Th (ovariectomized rats) [mm]	increase of femur BMD compared to the OVX group (ovariectomized rats) [%]	adsorption ability to hydroxyapatite (A%) ([2]; containing 1 mg AS) [%]	adsorption ability to hydroxyapatite (A%) ([2]; containing 5 mg AS) [%]	AUCt [3] [ng·h/mL]	Cmax [3] [ng/mL]	MRT [3] [min]	Tmax [3] [min]	t1/2 [3] [min]
CC(C)(O)[C@@H]1CC[C@](C)([C@H]2[C@@H](O)C[C@@]3(C)[C@@H]4C[C@H](O[C@@H]5O[C@H](CO)[C@@H](O)[C@H](O)[C@H]5O)[C@H]5C(C)(C)[C@@H](O[C@@H]6OC[C@@H](O)[C@H](O)[C@H]6O)CC[C@@]56C[C@@]46CC[C@]23C)O1 [AS, Astragaloside IV]	79.05	certain mitigative effect	0.064 ± 0.003	9.951 ± 0.100	1.847 ± 0.032	1.441 ± 0.026	0.60 ± 0.018	0.076 ± 0.002	12.9	26.98	28.83	12912	14320	82.14	4.98	33.5
C[C@]12CC[C@@H]3c4ccc(O)cc4CC[C@H]3[C@@H]1CC[C@@H]2O [ES, estradiol]			0.093 ± 0.003	12.91 ± 0.703	1.793 ± 0.052	1.943 ± 0.063	0.48 ± 0.016	0.074 ± 0.002	62.5							
